Like-named read-outs stand apart in the source and are kept apart here.

The subject of one assay is NALM-6. Description: MTT cytotoxicity assay, NALM-6. The settings on record: read-out: IC50 against NALM-6. The assay is classed as cell-based, human. As to the method:
(§1) Human B-lineage acute lymphoblastic leukemia (ALL) cell line NALM-6 and T-lineage ALL/lymphoma cell line MOLT-3 were obtained from American Type Culture Collection (Manassas, Va.). Cell lines were propagated in RPMI 1640 supplemented with 10% FCS, 4 mM glutamine, 100 units/ml penicillin G, and […] streptomycin sulfate. All tissue culture reagents were obtained from Life Technologies Inc. (Life Technologies, Inc., Gaithersburg, Md.). Cell lines were cultivated for a minimum of two passages after thawing prior to experimentation.
(§2) The cytotoxicity of the compounds were tested against human ALL cell lines using MTT assays (Roche Molecular Biochemicals, Indianapolis, Ind.), as described previously R. K. Narla et al., 1998, Clin Cancer Res 4:1405-14). Briefly, exponentially growing tumor cells were seeded into a 96-well plate at a density of 4×10^4 cells/well and incubated in medium containing the cinchona alkaloid compounds at concentrations ranging from 0.7 to 100 μM for 48 h at 37° C. in a humidified 5% CO2 atmosphere. To each well, 10 μL of MTT (final concentration, 0.5 mg/ml) was added, and the plates were incubated at 37° C. for 4 h to allow MTT to form formazan crystals by reacting with metabolically active cells. The formazan crystals were solubilized overnight at 37° C. in a solution containing 10% SDS and 0.01 M HCl. The absorbance of each well was measured in a microplate reader (Labsystems) at 540 nm and a reference wavelength of 690 nm. To translate the A540 values into the number of live cells in each well, the A540 values were compared to those on standard A540 versus cell number curves generated for each cell line. The percentage of survival was calculated using the formula: % survival=[Live cell number (test)/Live cell number (control)]×100. The IC50 values were calculated by nonlinear regression analysis using the graphed Prism Software version 2.0 (GraphPad Software, Inc., San Diego, Calif.).
(In general: Formazan colour is commonly taken as a measure of viable cells.)

A further assay relates to MOLT-3. In words: MTT cytotoxicity assay, MOLT-3. The assay is classed as cell-based, human. The settings on record: read-out: IC50 against MOLT-3. As to the method:
as §1, §2

The test system of assay [1] is mammary tumors of MMTV/neu transgenic mice. Description: MMTV/neu transgenic mouse model of HER2+ breast cancer. It counts as in vivo. The settings on record: 9-week observation; for tumor shrinkage and tumor growth: AP-8 2 mg/kg i.p. twice daily, paclitaxel 6.7 mg/kg, gemcitabine 33.7 mg/kg; for prevention of tumor progression compared with AP-8: paclitaxel 6.7 mg/kg i.p., gemcitabine 33.7 mg/kg i.p. An excerpt:
The predictive value of genetically engineered mouse (GEM) models to predict the clinical effectiveness of anti-cancer drugs is well established (Richmond A, Su Y. Mouse xenograft models vs GEM models for human cancer therapeutics. Dis Model Mech. 2008; 1(2-3):78-82. doi:10.1241-2/dmm.0.000976). We used the transgenic mouse model of HER2+ chemotherapy-resistant breast cancer to examine the in vivo anti-cancer activity of AP-8. Overexpression of the wild type Neu in the mammary glands of transgenic mice induces metastatic breast cancer. Accordingly, in the MMTV/Neu transgenic strain, the wild-type neu is overexpressed in the mammary gland under the control of the MMTV long terminal repeat. This animal model has been used to analyze the efficacy of new therapeutic approaches to prevent or treat Her2/neu overexpressing malignancies (Uckun, Dibirdik). MMTV/Neu transgenic mice [FVB/N-TgN(MMTV/neu)202MUL; Jackson Laboratory, Bar Harbor, Me.] were bred to produce multiple litters in a controlled SPF environment (12 h light/12 h-dark photoperiod, 22±1° C., 60±10% relative humidity). All mice were housed in microisolator cages (Lab Products, Inc., Maywood, N.Y., USA) containing autoclaved bedding in a controlled specific pathogen-free (SPF) environment (12 h light/12 h-dark photoperiod, 22±1° C., 60±10% relative humidity). Animal studies were approved by the institutional Animal Care and Use Committee of Drug Discovery Enterprises and all animal care procedures conformed to the Guide for the Care and Use of Laboratory Animals of the National Research Council. The genotype of mice was confirmed by multiplex polymerase chain reaction (PCR) tests as previously reported (F. M. Uckun et al., 2007, Bioorganic Med. Chem. 15:800-14; I. Dibirdik et al., 2010, J Nanomed and Nanotechnol. 1:001-4).
Neu transgenic mice carrying one or more tumors were randomly placed in the study. For the evaluation of tumor kinetics, tumor-bearing mice were randomly assigned to either vehicle control or treatment groups. Tumor growth was determined by the measurement of tumors with a caliper in three dimensions three days a week and expressed as tumor volume in cubic millimeters (mm^3). Tumor volumes were calculated using the formula for the volume of a prolate spheroid, V=4/3×3.14×length/2×width/2×depth/2. Due to the large heterogeneity in transgenic tumor volumes on day 0, tumor growth for each mouse was normalized to the starting volume for that particular tumor. Therefore, each mouse also served as its own control, and the tumor growth curves were generated to show the rate of change in tumor volumes.
AP-8 (50 μg˜2 mg/kg in 50 μL DMSO as vehicle) (10 mice, 12 target mammary tumors, Initial average tumor volume=787±125 mm^3) was administered by twice daily intraperitoneal injections on 5 consecutive days per week. Paclitaxel (10 mice, 13 target mammary tumors, Initial average tumor volume=554±79 mm^3) was administered intraperitoneally on days 1, 3, and 5 of each week at a dose level of 6.7 mg/kg ([…]). Gemcitabine (13 mice, 18 target mammary tumors, Initial average tumor volume=549±60 mm^3) was administered intraperitoneally on days 1 and 8 every 4 weeks at a dose level of 33.7 mg/kg (˜1 g/m^2). Control mice (8 mice, 10 mammary tumors, Initial average tumor volume=293±61 mm^3) were treated by twice daily intraperitoneal injections of vehicle alone (50 μL DMSO) on 5 consecutive days per week. […]

As a reminder, the IC50 is the concentration at which inhibition is half-maximal. Turning to “2,4,6-Tri (9-O-dihydrocinchonidinyl)pyrimidine [AP-6]”, the values for the IC50 in the assay on NALM-6 (48 h) and in the assay with MOLT-3 (48 h) were 6 µM and 11.4 µM, respectively.

For “2,4,6-Tri(9-O-cinchonidinyl)pyrimidine [AP-2]”, the IC50 in the assay on NALM-6 (48 h) was 11.4 µM; in the assay on MOLT-3 (48 h) it was 5.8 µM.

Turning to `C=CC1CN2CCC1CC2C(Oc1cc(OC(c2ccnc3ccc(OC)cc23)C2CC3CCN2CC3C=C)nc(OC(c2ccnc3ccc(OC)cc23)C2CC3CCN2CC3C=C)n1)c1ccnc2ccc(OC)cc12` (single isomer, unassigned) [AP-3, 2,4,6-Tri(9-O-quininyl)pyrimidine], the IC50 in the assay with NALM-6 (48 h) amounted to 3.6 µM; in the assay on MOLT-3 (48 h) it was 4.5 µM.

With `C=CC1CN2CCC1CC2C(Oc1cc(OC(c2ccnc3ccc(OC)cc23)C2CC3CCN2CC3C=C)nc(OC(c2ccnc3ccc(OC)cc23)C2CC3CCN2CC3C=C)n1)c1ccnc2ccc(OC)cc12` (single isomer, unassigned) [AP-4, 2,4,6-Tri (9-O-quinidinyl)pyrimidine], the IC50 in the assay on NALM-6 (48 h) turned out to be 2.8 µM; in the assay with MOLT-3 (48 h), 3.1 µM.

As to `CC[C@@H]1CN2CCC1C[C@@H]2C(Oc1cc(O[C@@H](c2ccnc3ccc(OC)cc23)[C@@H]2CC3CCN2C[C@@H]3CC)nc(OC(c2ccnc3ccc(OC)cc23)[C@H]2CC3CCN2C[C@H]3CC)n1)c1ccnc2ccc(OC)cc12` (some centres unmarked) [AP-7, 2,4,6-Tri (9-O-dihydroquininyl)pyrimidine], the IC50 in the assay with NALM-6 (Homo sapiens, NALM-6, 48 h) came out at 3.3 µM; in the assay on MOLT-3 (Homo sapiens, MOLT-3, 48 h), 3.5 µM.

Take `Nc1ccn([C@@H]2O[C@H](CO)[C@@H](O)C2(F)F)c(=O)n1` [gemcitabine, Gemcitabine]: in assay [1], the “tumor shrinkage and tumor growth” value is given as “Neither paclitaxel nor gemcitabine at the clinically applicable dose levels used in these experiments induced tumor shrinkage”; the “prevention of tumor progression compared with AP-8” value was “less effective than AP-8 in preventing tumor progression”.

Turning to `CC(=O)O[C@H]1C(=O)[C@@]2(C)[C@H]([C@H](OC(=O)c3ccccc3)[C@]3(O)C[C@H](OC(=O)[C@H](O)[C@@H](NC(=O)c4ccccc4)c4ccccc4)C(C)=C1C3(C)C)[C@]1(OC(C)=O)CO[C@@H]1C[C@@H]2O` [paclitaxel, Paclitaxel], in assay [1], the “tumor shrinkage and tumor growth” value is listed as “Neither paclitaxel nor gemcitabine at the clinically applicable dose levels used in these experiments induced tumor shrinkage”; the “prevention of tumor progression compared with AP-8” value is reported as “less effective than AP-8 in preventing tumor progression”.

The values above are taken from US11066421B1, “Synthetic cinchona alkaloids against cancer” (Ares Pharmaceuticals, LLC, priority 2021, dated 2021).
